# Assay results reported in patent publication US20210007985A1, “LIPOSOMAL ANTI-INFECTIVE FORMULATIONS TO INHIBIT NON-TUBERCULOUS MYCOBACTERIA (NTM) MICROAGGREGATE FORMATION AND ESTABLISHMENT OF NTM BIOFILM” (ARADIGM CORPORATION, priority 2017, published 2021).
# Tests used:
# M. avium biofilm = details: incubation of M. avium with antibiotic; McNabe et al. 2012; cited from earlier work
# M. avium 109 = assay: Activity against M. avium 109 in human macrophage (THP-1) model; assay type: cell-based; details: M. avium 109 in THP-1 macrophages; 20 μg/mL for 4 days
# [1] = tested on: M. avium (MAC Strain 104); assay: M. avium mouse lung infection model over 6 weeks; assay type: in vivo, mice; details: 1 mg/kg; 3 and 6 weeks
# M. avium 101 = assay: Activity against M. avium 101 in human macrophage (THP-1) model; assay type: cell-based
# M. avium = details: Inderlied et al, 1989; cited from earlier work
# M. avium microaggregates = assay: Electron micrographs of M. avium microaggregates on epithelial cell monolayer (FIG. 1); assay type: cell-based; details: 300 μg/mL; treatment added at t=0 h; growth over 24 h
# Source text: FIG. 1 consists of FIGS. 1A, 1B, 1C, 1D and 1E.
# M. avium MAC 104 = assay: Antimicrobial susceptibility (MIC, microdilution) of MAC 104 before and after treatment; assay type: cell-based; details: Mycobacterium avium, MAC104, read-out: MIC of M. avium to ciprofloxacin, before and after treatment
compound,measurement,setting,value
CC1(C)S[C@@H]2[C@H](NC(=O)[C@H](N)c3ccccc3)C(=O)N2[C@H]1C(=O)O [ampicillin],effect on M. avium biofilm formation,M. avium biofilm,no effect on biofilm
TMP/SMX,effect on M. avium biofilm formation,M. avium biofilm,no effect on biofilm
[H]/N=C(/N)N[C@H]1[C@H](O)[C@@H](O)[C@H](O[C@@H]2O[C@@H](C)[C@](O)(C=O)[C@H]2O[C@@H]2O[C@@H](CO)[C@H](O)[C@@H](O)[C@@H]2NC)[C@@H](N/C(N)=N\[H])[C@@H]1O [streptomycin],effect on M. avium biofilm formation,M. avium biofilm,"an increase, not decrease, in the biofilm formation"
O=C(O)c1cn(C2CC2)c2cc(N3CCNCC3)c(F)cc2c1=O [Ciprofloxacin],CFU Day 4,M. avium 109,1.1 ± 0.4 × 10^4 CFU
same,statistical effect on lung CFU,[1],did not have a statistically significant effect
same,statistical effect on CFU in macrophages,"M. avium 101; M. avium 101 and 109, 20 μg/ml, Day 4 vs Day 0",did not have a statistically significant effect
same,CFU Day 0,"M. avium 101; M. avium 101 in THP-1 macrophages, initial infecting load before treatment at 20 μg/mL",7 ± 0.2 × 10^4 CFU
same,minimum inhibitory concentration (MIC),M. avium,5 mg/L
same,microaggregate formation in electron micrographs,M. avium microaggregates,much less microaggregate formation than control
same,MIC,M. avium MAC 104,8 mg/L
